Like-named read-outs stand apart in the source and are kept apart here. Numbered stars: 1 amine (or outer) side, 2 acyl side, 3 side chain; on linkers, the order of the positions; unused ones are H or OH. Square brackets hold non-standard residues; d marks the D form. Side chains are listed from the residue outwards. Peptide text beside a SMILES is read from it. * marks the point of attachment. X4 = O=C(O)CCCCCCCCCCCCCCCCCCC(=O)N1CCC(C(=O)N[C@@H](CCC(=O)NCCCOCCOCCOCCCN*)C(=O)O)CC1; C20 diacid = O=C(O)CCCCCCCCCCCCCCCCCCC(=O)*; γGlu = O=C(O)[C@H](CCC(=O)[*:2])N[*:1]; Trx = NC[C@H]1CC[C@H](C(=O)O)CC1; PEG4 = NCCOCCOCCOCCOCCC(=O)O; Suc = O=C(CCC(=O)[*:2])[*:1]; AEEA = NCCOCCOCC(=O)O; Aib = CC(C)(N)C(=O)O
Assays:
human GLP-1 receptor [1] = biological target: T1, human GLP-1 receptor (Homo sapiens, UniProt P43220); assay: In vitro potency, CRE luciferase reporter gene assay in BHK cells expressing the human GLP-1 receptor; assay type: cell-based; conditions: whole cell reporter gene assay, 3 h incubation, no HSA, averages of at least two replicates
T1 construct: expressed in transfected cells; host or cells: membranes prepared from BHK cells (parent line BHKTS13), clone FCW467-12A
Method: The purpose of this example is to test the activity, or potency, of the GLP-1 derivatives in vitro. The in vitro potency is the measure of human GLP-1 receptor activation in a whole cell assay.
Semaglutide was included for comparison.
In vitro potency was determined by measuring the response of the human GLP-1 receptor in a reporter gene assay. The assay was performed in a stably transfected BHK cell line that expresses the human GLP-1 receptor and contains the DNA for the cAMP response element (CRE) coupled to a promoter and the gene for firefly luciferase (CRE luciferase). When the human GLP-1 receptor is activated it results in the production of cAMP, which in turn results in the luciferase protein being expressed. When assay incubation is completed the luciferase substrate (luciferin) is added and the enzyme converts luciferin to oxyluciferin to produce bioluminescence. The luminescence is measured as the readout for the assay.
The cells used in this assay (clone FCW467-12A/KZ10-1) were BHK cells with BHKTS13 as a parent cell line. The cells were derived from a clone (FCW467-12A) that expresses the human GLP-1 receptor and were established by further transfection with CRE luciferase to obtain the current clone.
The cells were cultured at 5% CO2 in Cell Culture Medium. They were aliquoted and stored in liquid nitrogen. Before each assay an aliquot is taken up and washed twice in PBS before being suspended at the desired concentration in the assay specific buffer. For 96-well plates the suspension was made to give a final concentration of 5×10^3 cells/well.
The following chemicals were used in the assay: Pluronic F-68 (10%) (Gibco 2404), human serum albumin (HSA) (Sigma A9511), ovalbumin (Sigma A5503), DMEM w/o phenol red (Gibco 11880-028), 1 M Hepes (Gibco 15630), Glutamax 100× (Gibco 35050) and steadylite plus (PerkinElmer 6016757).
Cell Culture Medium consisted of DMEM medium with 10% FBS (Fetal Bovine Serum; Invitrogen 16140-071), 1 mg/ml G418 (Invitrogen 15140-122), 240 nM MTX (methotrexate; Sigma M9929) and 1% pen/strep (penicillin/streptomycin; Invitrogen 15140-122).
Assay Medium consisted of DMEM w/o phenol red, 10 mM Hepes and 1× Glutamax. The Assay Buffer consisted of 2% ovalbumin and 0.2% Pluronic F-68 in Assay Medium.
1) Cell stocks were thawed in a 37° C. water bath.
2) Cells were washed three times in PBS.
3) The cells were counted and adjusted to 5×10^3 cells/50 μl (1×10^5 cells/ml) in Assay Medium. A 50 μl aliquot of cells was transferred to each well in the assay plate.
4) Stocks of the test compounds and reference compounds were diluted to a concentration of 0.2 μM in Assay Buffer. Compounds were diluted 10-fold to give the following concentrations: 2×10^−7 M, […]; 2×10^−9 M, 2×10^−10 M, 2×10^−11 M, 2×10^−12 M, 2×10^−13 M, and 2×10^−14 M. 5) A 50 μl aliquot of compound or blank was transferred from the dilution plate to the assay plate. Compounds were tested at the following final concentrations: 1×10^−7 M, 1×10^−8 M; 1×10^−9 M, 1×10^−10 M, 1×10^−11 M, 1×10^−12 M, 1×10^−13 M, and 1×10^−14 M. 6) The assay plate was incubated for 3 h in a 5% CO2 incubator at 37° C. 7) The assay plate was removed from the incubator and allowed to stand at room temperature for 15 min. 8) A 100 μl aliquot of steadylite plus reagent was added to each well of the assay plate (reagent was light sensitive). 9) Each assay plate was covered with aluminum foil to protect it from light and shaken for 30 min at room temperature. 10) Each assay plate was read in a Packard TopCount NXT instrument. Calculations and Results
The data from the TopCount instrument were transferred to GraphPad Prism software. The software performs a non-linear regression (log(agonist) vs response).
A minimum of two replicates was measured for each sample. The reported values are averages of the replicates.

human GLP-1 receptor [2] = biological target: T1, human GLP-1 receptor; assay: GLP-1 receptor binding, competitive binding assay (125I-GLP-1, SPA) on isolated membranes;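 further: test compounds added at a range of concentrations to membranes from cells expressing the human GLP-1 receptor, scored by displacement of labelled ligand, read with WGA SPA beads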
Method: The purpose of this example is to test the receptor binding of the GLP-1 derivatives in vitro. The receptor binding is a measure of affinity of a derivative for the human GLP-1 receptor.
In this type of assay a labelled ligand (in this case ^125I-GLP-1) is bound to the receptor. Each derivative is added in a series of concentrations to isolated membranes containing the human GLP-1 receptor and displacement of the labelled ligand is monitored. The receptor binding is reported as the concentration at which half of the labelled ligand is displaced from the receptor, the IC50 value.
The following chemicals were used in the assay: Human serum albumin (HSA) (Sigma A1653), DMEM w/o phenol red (Gibco 11880-028), Pen/strep (Invitrogen 15140-122), G418 (Invitrogen 10131-027), 1 M Hepes (Gibco 15630), EDTA (Invitrogen 15575-038), PBS (Invitrogen 14190-094), fetal calf serum (Invitrogen 16140-071), EGTA, MgCl2 (Merck 1.05832.1000), Tween 20 (Amresco 0850C335), SPA particles (wheat germ agglutinin (WGA) SPA beads, Perkin Elmer RPNQ0001), [^125I]-GLP-1]-(7-36)NH2 (produced in-house), OptiPlate™-96 (Packard 6005290).
Buffer 1 consisted of 20 mM Na-HEPES plus 10 mM EDTA and pH was adjusted to 7.4. Buffer 2 consisted of 20 mM Na-HEPES plus 0.1 mM EDTA and pH was adjusted to 7.4. Assay buffer consisted of 50 mM HEPES supplemented with 5 mM EGTA, 5 mM MgCl2, 0.005% Tween 20 and pH was adjusted to 7.4. An 8% albumin stock consisted of HSA dissolved at 8% (w/v) in assay buffer. An 0.02% albumin stock consisted of HSA dissolved at 0.02% (w/v) in assay buffer.
The cells express the human GLP-1 receptor.
The cells were grown at 5% CO2 in DMEM, 10% fetal calf serum, 1% Pen/Strep (Penicillin/Streptomycin) and 1.0 mg/ml of the selection marker G418.
To make a membrane preparation the cells were grown to approximately 80% confluence. The cells were washed twice in phosphate-buffered saline and harvested. The cells were pelleted using a brief centrifugation and the cell pellet was kept on ice. The cell pellet was homogenised with ULTRA-THURRAX™ dispersing instrument for 20-30 seconds in a suitable amount of buffer 1 (e.g., 10 ml). The homogenate was centrifuged for 15 minutes. The pellet was re-suspended (homogenised) in 10 ml buffer 2 and centrifuged. This step was repeated once more. The resulting pellet was re-suspended in buffer 2 and the protein concentration was determined. The membranes were aliquoted and stored at minus 80° C.
For the receptor binding assay in the presence of low HSA (0.005%) 50 μl of the assay buffer was added to each well of an assay plate.
For the receptor binding assay in the presence of high HSA (2%) 50 μl of the 8% albumin stock was added to each well of an assay plate.
Cell membrane aliquots were thawed and diluted to their working concentration. Fifty μl were added to each well in the assay plate.
WGA SPA beads were suspended in assay buffer at 20 mg/ml. The suspension was diluted to 10 mg/ml in assay buffer just prior to addition to the assay plate. Fifty μl were added to each well in the assay plate.
The incubation was started by adding 25 μl of 480 pM solution of [^125I]-GLP-1]-(7-36)NH2 to each well of the assay plate. A 25 μl aliquot was reserved for measuring total counts/well.
The assay plate was incubated for 2 h at 30° C.
The assay plate was centrifuged for 10 min.
The assay plate was read in a Packard TopCount NXT instrument.
The data from the TopCount instrument were transferred to GraphPad Prism software. The software averaged the values for the replicates and performed a non-linear regression. IC50 values were calculated by the software and reported in nM.

[3] = High HSA IC50 (nM), high serum albumin (2.0% HSA final assay concentration)
[4] = Low HSA IC50 (nM), low serum albumin (max. 0.001% final assay concentration)

T1 sequence (P43220 24-463): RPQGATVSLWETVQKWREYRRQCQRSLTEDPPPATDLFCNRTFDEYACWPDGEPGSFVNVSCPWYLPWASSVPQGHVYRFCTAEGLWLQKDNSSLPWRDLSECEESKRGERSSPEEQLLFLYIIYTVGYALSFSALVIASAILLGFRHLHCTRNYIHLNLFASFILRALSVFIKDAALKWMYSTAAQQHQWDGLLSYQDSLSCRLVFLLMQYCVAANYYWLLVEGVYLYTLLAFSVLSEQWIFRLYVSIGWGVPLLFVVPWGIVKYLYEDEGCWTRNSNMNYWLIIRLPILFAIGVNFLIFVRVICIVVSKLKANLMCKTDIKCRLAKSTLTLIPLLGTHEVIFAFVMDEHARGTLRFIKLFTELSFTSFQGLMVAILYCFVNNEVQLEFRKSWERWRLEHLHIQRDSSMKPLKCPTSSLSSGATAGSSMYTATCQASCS

Structure (SMILES) | EC50 (human GLP-1 receptor [1]) | IC50 (human GLP-1 receptor [2]; [3]) | IC50 (human GLP-1 receptor [2]; [4]) | IC50 (human GLP-1 receptor [2]; high serum albumin (2.0% HSA final assay concentration), read-out: High HSA IC50) | IC50 (human GLP-1 receptor [2]; low serum albumin (max. 0.001% final assay concentration), read-out: Low HSA IC50)
CC[C@H](C)[C@H](NC(=O)[C@H](Cc1ccccc1)NC(=O)[C@H](CCC(=O)O)NC(=O)[C@H](CCCNC(=N)N)NC(=O)[C@H](C)NC(=O)[C@H](C)NC(=O)[C@H](CCC(N)=O)NC(=O)[C@H](CCC(=O)O)NC(=O)[C@H](CCC(=O)O)NC(=O)[C@H](CC(C)C)NC(=O)[C@H](Cc1ccc(O)cc1)NC(=O)[C@H](CO)NC(=O)[C@H](CO)NC(=O)[C@@H](NC(=O)[C@H](CC(=O)O)NC(=O)[C@H](CO)NC(=O)[C@@H](NC(=O)[C@H](Cc1ccccc1)NC(=O)[C@@H](NC(=O)CNC(=O)[C@H](CCC(=O)O)NC(=O)C(C)(C)NC(=O)[C@@H](N)Cc1c[nH]cn1)[C@@H](C)O)[C@@H](C)O)C(C)C)C(=O)N[C@@H](C)C(=O)N[C@@H](Cc1c[nH]c2ccccc12)C(=O)N[C@@H](CC(C)C)C(=O)N[C@H](C(=O)N[C@@H](CCCNC(=N)N)C(=O)NCC(=O)N[C@@H](CCCNC(=N)N)C(=O)NCC(=O)N[C@@H](CCCCNC(=O)COCCOCCNC(=O)COCCOCCNC(=O)CC[C@H](NC(=O)[C@H]1CC[C@H](CNC(=O)CCCCCCCCCCCCCCCCCCC(=O)O)CC1)C(=O)O)C(=O)N1CCC[C@H]1C(=O)N[C@@H](CCC(=O)O)C(=O)NCC(=O)N[C@@H](CCCCNC(=O)COCCOCCNC(=O)COCCOCCNC(=O)CC[C@H](NC(=O)[C@H]1CC[C@H](CNC(=O)CCCCCCCCCCCCCCCCCCC(=O)O)CC1)C(=O)O)C(=O)O)C(C)C [Example 12] (H-H[Aib]EGTFTSDVSSYLEEQAAREFIAWLVRGRGK([AEEA-AEEA-γGlu-Trx-C20 diacid])PEGK([AEEA-AEEA-γGlu-Trx-C20 diacid])-OH) | 0.024 nM | 212 nM | 1.4 nM | – | –
CC[C@H](C)[C@H](NC(=O)[C@H](Cc1ccccc1)NC(=O)[C@H](CCC(=O)O)NC(=O)[C@H](CCCNC(=N)N)NC(=O)[C@H](C)NC(=O)[C@H](C)NC(=O)[C@H](CCC(N)=O)NC(=O)[C@H](CCC(=O)O)NC(=O)[C@H](CCC(=O)O)NC(=O)[C@H](CC(C)C)NC(=O)[C@H](Cc1ccc(O)cc1)NC(=O)[C@H](CO)NC(=O)[C@H](CO)NC(=O)[C@@H](NC(=O)[C@H](CC(=O)O)NC(=O)[C@H](CO)NC(=O)[C@@H](NC(=O)[C@H](Cc1ccccc1)NC(=O)[C@@H](NC(=O)CNC(=O)[C@H](CCC(=O)O)NC(=O)C(C)(C)NC(=O)[C@@H](N)Cc1c[nH]cn1)[C@@H](C)O)[C@@H](C)O)C(C)C)C(=O)N[C@@H](C)C(=O)N[C@@H](Cc1c[nH]c2ccccc12)C(=O)N[C@@H](CC(C)C)C(=O)N[C@H](C(=O)N[C@@H](CCCNC(=N)N)C(=O)NCC(=O)N[C@@H](CCCNC(=N)N)C(=O)NCC(=O)N[C@@H](CCCCNC(=O)CCOCCOCCOCCOCCNC(=O)CC[C@H](NC(=O)[C@H]1CC[C@H](CNC(=O)CCCCCCCCCCCCCCCCCCC(=O)O)CC1)C(=O)O)C(=O)NCC(=O)NCC(=O)N[C@@H](CO)C(=O)N[C@@H](CCCCNC(=O)CCOCCOCCOCCOCCNC(=O)CC[C@H](NC(=O)[C@H]1CC[C@H](CNC(=O)CCCCCCCCCCCCCCCCCCC(=O)O)CC1)C(=O)O)C(=O)O)C(C)C [Example 10, N{Alpha}([Aib8,Glu22,Arg26,Arg34]-GLP-1-(7-37)-peptidyl)-N{Epsilon}3-[2-[2-[2-[2-[[(4S)-4-carboxy-4-[[4-[(19-carboxynonadecanoylamino)methyl]cyclohexanecarbonyl]amino]butanoyl]amino]ethoxy]ethoxy]ethoxy]ethoxy]propanoylLys-Gly-Gly-Ser-N{Epsilon}3-[2-[2-[2-[2-[[(4S)-4-carboxy-4-[[4-[(19-carboxynonadecanoylamino)methyl]cyclohexanecarbonyl]amino]butanoyl]amino]ethoxy]ethoxy]ethoxy]ethoxy]propanoylLys] (H-H[Aib]EGTFTSDVSSYLEEQAAREFIAWLVRGRGK([PEG4-γGlu-Trx-C20 diacid])GGSK([PEG4-γGlu-Trx-C20 diacid])-OH) | 0.027 nM | 123 nM | 1.3 nM | – | –
CC[C@H](C)[C@H](NC(=O)[C@H](Cc1ccccc1)NC(=O)[C@H](CCC(=O)O)NC(=O)[C@H](CCCNC(=N)N)NC(=O)[C@H](C)NC(=O)[C@H](C)NC(=O)[C@H](CCC(N)=O)NC(=O)[C@H](CCC(=O)O)NC(=O)[C@H](CCC(=O)O)NC(=O)[C@H](CC(C)C)NC(=O)[C@H](Cc1ccc(O)cc1)NC(=O)[C@H](CO)NC(=O)[C@H](CO)NC(=O)[C@@H](NC(=O)[C@H](CC(=O)O)NC(=O)[C@H](CO)NC(=O)[C@@H](NC(=O)[C@H](Cc1ccccc1)NC(=O)[C@@H](NC(=O)CNC(=O)[C@H](CCC(=O)O)NC(=O)C(C)(C)NC(=O)[C@@H](N)Cc1c[nH]cn1)[C@@H](C)O)[C@@H](C)O)C(C)C)C(=O)N[C@@H](C)C(=O)N[C@@H](Cc1c[nH]c2ccccc12)C(=O)N[C@@H](CC(C)C)C(=O)N[C@H](C(=O)N[C@@H](CCCNC(=N)N)C(=O)NCC(=O)N[C@@H](CCCNC(=N)N)C(=O)NCC(=O)N[C@@H](CCCCNC(=O)COCCOCCNC(=O)COCCOCCNC(=O)COCCOCCNC(=O)COCCOCCNC(=O)CC[C@H](NC(=O)CCCCCCCCCCCCCCCCCCC(=O)O)C(=O)O)C(=O)NCC(=O)NCC(=O)N[C@@H](CO)C(=O)N[C@@H](CCCCNC(=O)COCCOCCNC(=O)COCCOCCNC(=O)COCCOCCNC(=O)COCCOCCNC(=O)CC[C@H](NC(=O)CCCCCCCCCCCCCCCCCCC(=O)O)C(=O)O)C(=O)O)C(C)C [Example 19] (H-H[Aib]EGTFTSDVSSYLEEQAAREFIAWLVRGRGK([AEEA-AEEA-AEEA-AEEA-γGlu-C20 diacid])GGSK([AEEA-AEEA-AEEA-AEEA-γGlu-C20 diacid])-OH; N-terminus and C-terminus assumed) | 0.0062 nM | – | – | 142 nM | 2.4 nM
CC[C@H](C)[C@H](NC(=O)[C@H](Cc1ccccc1)NC(=O)[C@H](CCC(=O)O)NC(=O)[C@H](CCCNC(=N)N)NC(=O)[C@H](C)NC(=O)[C@H](C)NC(=O)[C@H](CCC(N)=O)NC(=O)[C@H](CCC(=O)O)NC(=O)[C@H](CCC(=O)O)NC(=O)[C@H](CC(C)C)NC(=O)[C@H](Cc1ccc(O)cc1)NC(=O)[C@H](CO)NC(=O)[C@H](CO)NC(=O)[C@@H](NC(=O)[C@H](CC(=O)O)NC(=O)[C@H](CO)NC(=O)[C@@H](NC(=O)[C@H](Cc1ccccc1)NC(=O)[C@@H](NC(=O)CNC(=O)[C@H](CCC(=O)O)NC(=O)C(C)(C)NC(=O)[C@@H](N)Cc1c[nH]cn1)[C@@H](C)O)[C@@H](C)O)C(C)C)C(=O)N[C@@H](C)C(=O)N[C@@H](Cc1c[nH]c2ccccc12)C(=O)N[C@@H](CC(C)C)C(=O)N[C@H](C(=O)N[C@@H](CCCNC(=N)N)C(=O)NCC(=O)N[C@@H](CCCNC(=N)N)C(=O)NCC(=O)N[C@@H](CCCCNC(=O)CCC(=O)NCCCOCCOCCOCCCNC(=O)CC[C@H](NC(=O)C1CCN(C(=O)CCCCCCCCCCCCCCCCCCC(=O)O)CC1)C(=O)O)C(=O)NCC(=O)NCC(=O)N[C@@H](CO)C(=O)N[C@@H](CCCCNC(=O)CCC(=O)NCCCOCCOCCOCCCNC(=O)CC[C@H](NC(=O)C1CCN(C(=O)CCCCCCCCCCCCCCCCCCC(=O)O)CC1)C(=O)O)C(=O)O)C(C)C [Example 21] (H-H[Aib]EGTFTSDVSSYLEEQAAREFIAWLVRGRGK([Suc-X4])GGSK([Suc-X4])-OH; N-terminus and C-terminus assumed) | 0.019 nM | 177 nM | 1.3 nM | – | –

— patent US10010614B2, “Derivatives of GLP-1 like peptides, and uses thereof” (Novo Nordisk A/S, priority 2013, dated 2018)
